Source: US7041698B2, “Hepatitis C virus inhibitors” (Bristol-Myers Squibb Company, priority 2002, dated 2006)
Like-named read-outs stand apart in the source and are kept apart here.

Target: T1, HCV NS3/4A protease complex (UniProt P27958, C1454S/C1711G, species not given)
T1 construct: fused on or other part: Three-lysine solubilising tail at the C-terminus of NS4A
Assay: Recombinant HCV NS3/4A protease complex FRET peptide assay (strain not stated)
Format: biochemical
Source text: Recombinant HCV NS3/4A Protease Complex FRET Peptide Assay
The purpose of this in vitro assay was to measure the inhibition of HCV NS3 protease complexes, derived from the BMS, H77C or J416S strains, as described below, by compounds of the present invention. This assay provides an indication of how effective compounds of the present invention would be in inhibiting HCV proteolytic activity.
Serum from an HCV-infected patient was obtained from Dr. T. Wright, San Francisco Hospital. An engineered full-length cDNA (compliment deoxyribonucleic acid) template of the HCV genome (BMS strain) was constructed from DNA fragments obtained by reverse transcription-PCR (RT-PCR) of serum RNA (ribonucleic acid) and using primers selected on the basis of homology between other genotype 1a strains. From the determination of the entire genome sequence, a genotype 1a was assigned to the HCV isolate according to the classification of Simmonds et al. (See P Simmonds, K A Rose, S Graham, S W Chan, F McOmish, B C Dow, E A Follett, P L Yap and H Marsden, J. Clin. Microbiol., 31(6), 1493–1503 (1993)). […] The infectious clones, H77C (1a genotype) and J4L6S (1b genotype) were obtained from R. Purcell (NIH) and the sequences are published in Genbank (AAB67036, see Yanagi, M., Purcell, R. H., Emerson, S. U. and Bukh, J. Proc. Natl. Acad. Sci. U.S.A. 94(16),8738–8743 (1997); AF054247, see Yanagi, M., St Claire, M., Shapiro, M., Emerson, S. U., Purcell, R. H. and Bukh, J, Virology 244 (1), 161–172. (1998)).
The BMS, H77C and J4L6S strains were used for production of recombinant NS3/4A protease complexes. DNA encoding the recombinant HCV NS3/4A protease complex (amino acids 1027 to 1711) for these strains were manipulated as described by P. Gallinari et al. (see Gallinari P, Paolini C, Brennan D, Nardi C, Steinkuhler C, De Francesco R. Biochemistry. 38(17):5620–32, (1999)). Briefly, a three-lysine solubilizing tail was added at the 3′-end of the NS4A coding region. The cysteine in the P1 position of the NS4A-NS4B cleavage site (amino acid 1711) was changed to a glycine to avoid the proteolytic cleavage of the lysine tag. Furthermore, a cysteine to serine mutation was introduced by PCR at amino acid position 1454 to prevent the autolytic cleavage in the NS3 helicase domain. The variant DNA fragment was cloned in the pET21b bacterial expression vector (Novagen) and the NS3/4A complex was expressed in Escherichia. coli strain BL21 (DE3) (Invitrogen) following the protocol described by P. Gallinari et al. (see Gallinari P, Brennan D, Nardi C, Brunetti M, Tomei L, Steinkuhler C, De Francesco R., J. Virol. 72(8):6758–69 (1998)) with modifications. Briefly, NS3/4A expression was induced with 0.5 mM Isopropyl β-D-1-thiogalactopyranoside (IPTG) for 22 hr at 20° C. A typical fermentation (10L) yielded approximately 80 g of wet cell paste. The cells were resuspended in lysis buffer (10 mL/g) consisting of 25 mM N-(2-Hydroxyethyl)Piperazine-N′-(2-Ethane Sulfonic acid) (HEPES), pH7.5, 20% glycerol, 500 mM Sodium Chloride (NaCl), 0.5% Triton-X100, 1 ug/ml lysozyme, 5 mM Magnesium Chloride (MgCl2), lug/ml Dnasel, 5 mM β-Mercaptoethanol (βME), Protease inhibitor—Ethylenediamine Tetraacetic acid (EDTA) free (Roche), homogenized and incubated for 20 mins at 4° C. The homogenate was sonicated and clarified by ultra-centrifugation at 235000 g for 1 hr at 4° C. Imidazole was added to the supernatant to a final concentration of 15 mM and the pH adjusted to 8.0. The crude protein extract was loaded on a Nickel-Nitrilotriacetic acid (Ni-NTA) column pre-equilibrated with buffer B (25 mM HEPES, pH 8.0, 20% glycerol, 500 mM NaCl, 0.5% Triton-X100, 15 mM imidazole, 5 mM βME). The sample was loaded at a flow rate of 1 mL/min. The column was washed with 15 column volumes of buffer C (same as buffer B except with 0.2% Triton-X100). The protein was eluted with 5 column volumes of buffer D (same as buffer C except with 200 mM Imidazole). […]

[1] = HCV NS3/4A protease enzyme assay, read-out: IC50 range

Compound | IC50 [1] [µM] | IC50 (read-out: IC50 range, HCV NS3/4A protease enzyme assay) [µM]
C=CC1C[C@]1(NC(=O)[C@@H]1C[C@@H](OC(=O)Nc2c(CC)cccc2C(C)C)CN1C(=O)[C@@H](NC(=O)OC(C)(C)C)C(C)(C)C)C(=O)NS(=O)(=O)C1CC1 (stereo partly drawn) [Compound 22, BocNH-P3(t-BuGly)-P2(Hyp(O—CO(NH—(2-ethyl-6-isopropyl-phenyl))))-P1(1R,2S VinylAcca)—CONHSO2Cyclopropane] | 1 to 10 | 
C=CC1C[C@]1(NC(=O)[C@@H]1C[C@@H](OC(=O)Nc2c(C)cccc2C)CN1C(=O)[C@@H](NC(=O)OC(C)(C)C)C(C)(C)C)C(=O)NS(=O)(=O)C1CC1 (stereo partly drawn) [Compound 58, BocNH-P3(t-BuGly)-P2(Hyp(O—CO(NH—(2,6-dimethyl-phenyl))))-P1(1R,2S VinylAcca)—CONHSO2Cyclopropane] | 1 to 10 | 
C=CC1C[C@]1(NC(=O)[C@@H]1C[C@@H](OC(=O)Nc2c(C)cccc2CC)CN1C(=O)[C@@H](NC(=O)OC(C)(C)C)C(C)(C)C)C(=O)NS(=O)(=O)C1CC1 (stereo partly drawn) [Compound 61, BocNH-P3(t-BuGly)-P2(Hyp(O—CO(NH—(2-ethyl-6-methyl))))-P1(1R,2S VinylAcca)—CONHSO2Cyclopropane] | 1 to 10 | 
C=CC1C[C@]1(NC(=O)[C@@H]1C[C@@H](OC(=O)Nc2c(CC)cccc2CC)CN1C(=O)[C@@H](NC(=O)OC(C)(C)C)C(C)(C)C)C(=O)NS(=O)(=O)C1CC1 (stereo partly drawn) [Compound 62, BocNH-P3(t-BuGly)-P2(Hyp(O—CO(NH—(2,6-diethyl-phenyl))))-P1(1R,2S VinylAcca)—CONHSO2Cyclopropane] |  | 1 to 10
C=CC1C[C@]1(NC(=O)[C@@H]1C[C@@H](OC(=O)Nc2c(C)nn(C)c2C)CN1C(=O)[C@@H](NC(=O)OC(C)(C)C)C(C)(C)C)C(=O)NS(=O)(=O)C1CC1 (stereo partly drawn) [Compound 68, BocNH-P3(t-BuGly)-P2(Hyp(O—CO(NH—(1,3,5-Trimethyl-pyrazol-4-yl))))-P1(1R,2S VinylAcca)—CONHSO2Cyclopropane] | 1 to 10 | 
C=CC1CC1(NC(=O)[C@@H]1C[C@@H](OC(=O)Nc2c(F)cccc2F)CN1C(=O)[C@@H](NC(=O)OC(C)(C)C)C(C)(C)C)C(=O)O (stereo partly drawn) [Compound 102, BocNH-P3(t-BuGly)-P2(Hyp(O—CO(NH—(2,6-difluoro-phenyl))))-P1((1R,2S)/(1S,2R) VinylAcca)—CO2H] | > 10 | 
C=CC1CC1(NC(=O)[C@@H]1C[C@@H](OC(=O)NCc2ccccc2C)CN1C(=O)[C@@H](NC(=O)OC(C)(C)C)C(C)(C)C)C(=O)O (stereo partly drawn) [Compound 103, BocNH-P3(t-BuGly)-P2(Hyp(O—CO(NH—(2-methyl-benzyl))))-P1((1R,2S)/(1S,2R) VinylAcca)—CO2H] | > 10 | 
C=CC1CC1(NC(=O)[C@@H]1C[C@@H](OC(=O)N[C@H](C(=O)OC)[C@@H](C)CC)CN1C(=O)[C@@H](NC(=O)OC(C)(C)C)C(C)(C)C)C(=O)O (stereo partly drawn) [Compound 104, BocNH-P3(t-BuGly)-P2(Hyp(O—CO(NH-2-[(2S,3S)-3-methylvaleric acid methyl ester])))-P1((1R,2S)/(1S,2R) VinylAcca)—CO2H] | 1 to 10 | 
C=CC1CC1(NC(=O)[C@@H]1C[C@@H](OC(=O)NC(C)c2cccc3ccccc23)CN1C(=O)[C@@H](NC(=O)OC(C)(C)C)C(C)(C)C)C(=O)O (stereo partly drawn) [Compound 105, BocNH-P3(t-BuGly)-P2(Hyp(O—CO(NH-1-(R)-1-naphthylethyl)))-P1((1R,2S)/(1S,2R) VinylAcca)—CO2H] | > 10 | 
C=CC1CC1(NC(=O)[C@@H]1C[C@@H](OC(=O)Nc2ccccc2)CN1C(=O)[C@@H](NC(=O)OC(C)(C)C)C(C)(C)C)C(=O)O (stereo partly drawn) [Compound 106, BocNH-P3(t-BuGly)-P2(Hyp(O—CO(NH-phenyl)))-P1((1R,2S)/(1S,2R) VinylAcca)—CO2H] | > 10 | 
C=CC1CC1(NC(=O)[C@@H]1C[C@@H](OC(=O)Nc2cc(C)ccc2F)CN1C(=O)[C@@H](NC(=O)OC(C)(C)C)C(C)(C)C)C(=O)O (stereo partly shown) [Compound 107] | > 10 | 
C=CC1CC1(NC(=O)[C@@H]1C[C@@H](OC(=O)NCCc2cccs2)CN1C(=O)[C@@H](NC(=O)OC(C)(C)C)C(C)(C)C)C(=O)O (stereo partly drawn) [Compound 108, BocNH-P3(t-BuGly)-P2(Hyp(O—CO(NH—(2-thiophen-2-yl-ethyl))))-P1((1R,2S)/(1S,2R) VinylAcca)—CO2H] | > 10 | 
C=CC1CC1(NC(=O)[C@@H]1C[C@@H](OC(=O)Nc2cccc(C(F)(F)F)c2)CN1C(=O)[C@@H](NC(=O)OC(C)(C)C)C(C)(C)C)C(=O)O (stereo partly drawn) [Compound 109, BocNH-P3(t-BuGly)-P2(Hyp(O—CO(NH—(3-trifluoromethyl-phenyl))))-P1((1R,2S)/(1S,2R) VinylAcca)—CO2H] | > 10 | 
